In PubChem BioAssay AID434987 (Southern Research Specialized Biocontainment Screening …, 2010):
Active and inactive are the calls of the source. How the calls were made is not given here.

Test system: M. tuberculosis H37Rv growth inhibition with meropenem
Test: dose response, H37Rv, with and without meropenem (AID 434987);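 further: growth over 7 days at 37 °C before Alamar Blue read on day 9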
[1] = M. tuberculosis H37Rv growth inhibition, measured here: IC50 without meropenem
[2] = M. tuberculosis H37Rv growth inhibition, measured here: IC90 without meropenem
[3] = measured here: IC90 with meropenem

For `CSc1nsc(SC)c1NC(=O)OCc1ccccc1`, the IC50 was 32.3 µM, the IC50 [1] was greater than 100 µM and the IC90 [2] was greater than 100 µM. It also gave an IC90 [3] greater than 100 µM.
In the case of `CCOc1ccc2cc(S(=O)(=O)N3CCCCC3)ccc2c1`, the IC50 is reported as > 100 µM (inactive), the IC50 [1] is reported as greater than 100 µM and the IC90 [2] is reported as greater than 100 µM. It also gave an IC90 [3] greater than 100 µM.
With `S=C(NNc1ccc2ccccc2c1)NC1CCCCC1` the IC50 was 8.86 µM (inactive), the IC50 [1] was 20.4 µM and the IC90 [2] was 46.7 µM. For the same molecule, the IC90 [3] was 41.3 µM.
With `COc1ccc(-c2nc(-c3cccc(C)c3)no2)cc1OC` the IC50 was > 100 µM (inactive), the IC50 [1] was greater than 100 µM and the IC90 [2] was greater than 100 µM. It also gave an IC90 [3] greater than 100 µM.
`O=C(/C=C/c1cc(Br)ccc1F)OCC(=O)N1CCCC1` was tested, and the IC50 was > 100 µM (inactive), the IC50 [1] was greater than 100 µM and the IC90 [2] was greater than 100 µM. It also gave an IC90 [3] greater than 100 µM.
With `CCc1ccc(NC(=S)Nc2ccc3[nH]c(=O)[nH]c3c2)cc1` the IC50 was > 100 µM (inactive), the IC50 [1] was greater than 100 µM and the IC90 [2] was greater than 100 µM. The IC90 [3] was greater than 100 µM.
`COc1cc(/C(C)=N\NC(N)=S)cc(OC)c1OC` showed an IC50 of 10.2 µM, an IC50 [1] greater than 100 µM and an IC90 [2] greater than 100 µM. It also gave an IC90 [3] of 19.6 µM.
For `CCCCNC(=O)c1onc(CSc2ccccc2CC)c1C(=O)O`, the IC50 was 22.3 µM (inactive), the IC50 [1] was 44.7 µM and the IC90 [2] was greater than 100 µM. The IC90 [3] was 23.7 µM.
Molecule `Cc1cc(NC(=O)/C=C/c2ccccc2Cl)n(-c2nc3ccccc3[nH]2)n1` has an IC50 of 1.94 µM, an IC50 [1] greater than 100 µM and an IC90 [2] greater than 100 µM. For the same molecule, the IC90 [3] was greater than 100 µM.
For `O=C(CCS(=O)(=O)c1ccc(F)cc1)Nc1nnc(-c2cccs2)o1`, the IC50 was 2.94 µM, the IC50 [1] was 47.2 µM and the IC90 [2] was greater than 100 µM. It also gave an IC90 [3] greater than 100 µM.
`COc1cc(OC)cc(-c2c(C#Cc3ccsc3)c3cc(-c4ccc(OC)nc4)ccc3n2C)c1` was tested, and the IC50 was > 100 µM (inactive), the IC50 [1] was greater than 100 µM and the IC90 [2] was greater than 100 µM. For the same molecule, the IC90 [3] was greater than 100 µM.
Work on `COc1ccccc1-c1cc(C(=O)Nc2c(C)n(C)n(-c3ccccc3)c2=O)no1` yielded an IC50 of 6.68 µM, an IC50 [1] of 39.2 µM and an IC90 [2] of 88.1 µM. For the same molecule, the IC90 [3] was 19.5 µM.
For `CCOC(=O)c1ccc(N2CN(C3CCCCC3)CNC2=S)cc1`, the IC50 was 35.4 µM, the IC50 [1] was greater than 100 µM and the IC90 [2] was greater than 100 µM. The IC90 [3] was greater than 100 µM.
`CN=C(Nc1cc(Cl)ccc1Cl)SC1CC(=O)N(c2ccc(C(=O)OC)cc2)C1=O` (configuration not stated) was tested, and the IC50 was > 100 µM (inactive), the IC50 [1] was greater than 100 µM and the IC90 [2] was greater than 100 µM. It also gave an IC90 [3] greater than 100 µM.
In the case of `Cc1cc(C)nc(SCC(=O)Nc2ccccc2[N+](=O)[O-])n1`, the IC50 is reported as 14.4 µM (inactive), the IC50 [1] is reported as 27.9 µM and the IC90 [2] is reported as greater than 100 µM. For the same molecule, the IC90 [3] was greater than 100 µM.
In the case of `COC(=O)c1cccc(NC(=S)NCCC2=CCCCC2)c1`, the IC50 is reported as > 100 µM (inactive), the IC50 [1] is reported as greater than 100 µM and the IC90 [2] is reported as greater than 100 µM. It also gave an IC90 [3] greater than 100 µM.
`Cc1nnc(SCc2ccc(C(=O)Nc3cc(Cl)ccc3C)cc2)s1` was tested, and the IC50 was > 100 µM (inactive), the IC50 [1] was greater than 100 µM and the IC90 [2] was greater than 100 µM. For the same molecule, the IC90 [3] was greater than 100 µM.
With `CCCC(=O)N1CCN(c2ccc(NC(=S)NC(=O)CC)cc2)CC1` the IC50 was 62.1 µM (inactive), the IC50 [1] was greater than 100 µM and the IC90 [2] was greater than 100 µM. For the same molecule, the IC90 [3] was greater than 100 µM.
In the case of `COc1ccc(C2CC(c3c(-c4ccccc4)c4cc(Cl)ccc4[nH]c3=O)=NN2S(C)(=O)=O)cc1` (configuration not stated), the IC50 is reported as > 100 µM (inactive), the IC50 [1] is reported as greater than 100 µM and the IC90 [2] is reported as greater than 100 µM. It also gave an IC90 [3] greater than 100 µM.
`Cc1ccc(C)c(N2CCN(CC3CC=CCC3)CC2)c1` (configuration not stated) showed an IC50 of 25.6 µM, an IC50 [1] of 79.8 µM and an IC90 [2] greater than 100 µM. The IC90 [3] was 60.7 µM.
With `CCN(CC)C(=O)Cn1cc(C(=O)C(=O)N2CCN(c3ccccc3)CC2)c2ccccc21` the IC50 was > 100 µM (inactive), the IC50 [1] was greater than 100 µM and the IC90 [2] was greater than 100 µM. The IC90 [3] was greater than 100 µM.
For `CC1(C)C2CC=C(/C=N/NC(=O)c3ccccc3O)C1C2` (configuration not stated), the IC50 was 65.7 µM (inactive), the IC50 [1] was greater than 100 µM and the IC90 [2] was greater than 100 µM. For the same molecule, the IC90 [3] was greater than 100 µM.
`O=C(O)CCN1C(=O)/C(=C/c2ccc(-c3nc4ccccc4s3)o2)SC1=S` was tested, and the IC50 was 38.3 µM (inactive), the IC50 [1] was 60.1 µM and the IC90 [2] was greater than 100 µM. For the same molecule, the IC90 [3] was 78.4 µM.
Molecule `C/C(=N/NC(=O)c1ccccn1)c1ccncc1` has an IC50 of 9.52 µM, an IC50 [1] of 31.8 µM and an IC90 [2] greater than 100 µM. For the same molecule, the IC90 [3] was 23.1 µM.
With `COCCOC(=O)c1c(C)oc2ccc(OC(=O)c3c(OC)cccc3OC)cc12` the IC50 was > 100 µM (inactive), the IC50 [1] was greater than 100 µM and the IC90 [2] was greater than 100 µM. The IC90 [3] was greater than 100 µM.
With `COCCNC(=S)N/N=C1\CC(C)CC(C)(C)C1` (configuration not stated) the IC50 was 24.5 µM (inactive), the IC50 [1] was 32.4 µM and the IC90 [2] was 41.1 µM. The IC90 [3] was 27.5 µM.
For `COCc1cc(=O)n2[nH]cc(-c3ccccc3)c2n1`, the IC50 was 10.1 µM, the IC50 [1] was 41.4 µM and the IC90 [2] was greater than 100 µM. It also gave an IC90 [3] of 15.5 µM.
`CCc1cc2c(=O)nc3n(c2s1)Cc1ccccc1/C3=C(/O)c1ccc(F)cc1` was tested, and the IC50 was > 100 µM (inactive), the IC50 [1] was greater than 100 µM and the IC90 [2] was greater than 100 µM. It also gave an IC90 [3] greater than 100 µM.
In the case of `O=C(N/N=C/c1c(Cl)cccc1Cl)c1cccc(F)c1`, the IC50 is reported as > 100 µM (inactive), the IC50 [1] is reported as greater than 100 µM and the IC90 [2] is reported as greater than 100 µM. For the same molecule, the IC90 [3] was greater than 100 µM.
For `CC1(C)CC(=O)c2cc(C(=O)NCc3ccco3)c(=O)n(-c3ccccc3)c2C1`, the IC50 was > 100 µM (inactive), the IC50 [1] was greater than 100 µM and the IC90 [2] was greater than 100 µM. The IC90 [3] was greater than 100 µM.
With `CCN(CC)c1ccc(C(=O)n2cnc3ccccc32)cc1` the IC50 was 70.3 µM (inactive), the IC50 [1] was 91.6 µM and the IC90 [2] was greater than 100 µM. The IC90 [3] was greater than 100 µM.
In the case of `CCSc1nnc(NC(=O)C2Cc3ccccc3CN2C(=O)c2ccco2)s1` (configuration not stated), the IC50 is reported as 2.69 µM, the IC50 [1] is reported as greater than 100 µM and the IC90 [2] is reported as greater than 100 µM. The IC90 [3] was greater than 100 µM.
Work on `O=c1c(O)c(-c2ccc3c(c2)OCO3)oc2ccccc12` yielded an IC50 of 2.12 µM, an IC50 [1] greater than 100 µM and an IC90 [2] greater than 100 µM. For the same molecule, the IC90 [3] was greater than 100 µM.
`COc1cc(SC)ccc1C(=O)Nc1ccc(C)cc1C` showed an IC50 of 38.3 µM, an IC50 [1] greater than 100 µM and an IC90 [2] greater than 100 µM. The IC90 [3] was greater than 100 µM.
With `CCn1c(O)c(/C=N/NC(=O)c2ccccc2)c(=O)n(CC)c1=S` the IC50 was 16.2 µM, the IC50 [1] was greater than 100 µM and the IC90 [2] was greater than 100 µM. It also gave an IC90 [3] greater than 100 µM.
In the case of `C/C(=N\NC(N)=S)c1ccc(-n2ccnc2)cc1`, the IC50 is reported as 6.58 µM, the IC50 [1] is reported as greater than 100 µM and the IC90 [2] is reported as greater than 100 µM. For the same molecule, the IC90 [3] was greater than 100 µM.
In the case of `CCNc1nc(CN2CCCCC2)nc2scc(-c3ccccc3)c12`, the IC50 is reported as 8.75 µM, the IC50 [1] is reported as 47.2 µM and the IC90 [2] is reported as greater than 100 µM. The IC90 [3] was 57.3 µM.
In the case of `C/C(=N\NC(=S)NCc1ccccc1)c1cccc(Br)c1`, the IC50 is reported as > 100 µM (inactive), the IC50 [1] is reported as greater than 100 µM and the IC90 [2] is reported as greater than 100 µM. It also gave an IC90 [3] greater than 100 µM.
In the case of `CCC(=O)NC(=S)Nc1ccc(NC(=O)c2ccccc2[N+](=O)[O-])cc1`, the IC50 is reported as > 100 µM (inactive), the IC50 [1] is reported as greater than 100 µM and the IC90 [2] is reported as greater than 100 µM. It also gave an IC90 [3] greater than 100 µM.
In the case of `CCOc1ccc2nc(N3CCC(C(=O)NC4CCCCC4)CC3)sc2c1`, the IC50 is reported as > 100 µM (inactive), the IC50 [1] is reported as greater than 100 µM and the IC90 [2] is reported as greater than 100 µM. It also gave an IC90 [3] greater than 100 µM.
Work on `Cc1cccc2c(C(=O)n3cccn3)cc(-c3ccccc3Cl)nc12` yielded an IC50 of 7.95 µM, an IC50 [1] of 52.7 µM and an IC90 [2] greater than 100 µM. It also gave an IC90 [3] of 26.8 µM.
With `COc1cc(C(=O)Oc2cccnc2)cc(OC)c1OC` the IC50 was 5.8 µM, the IC50 [1] was 48.4 µM and the IC90 [2] was greater than 100 µM. It also gave an IC90 [3] of 13.6 µM.
`Cc1ccc(C)c(-n2c(-c3ccco3)n[nH]c2=S)c1` gave an IC50 of 14 µM, an IC50 [1] of 48.9 µM and an IC90 [2] greater than 100 µM. For the same molecule, the IC90 [3] was greater than 100 µM.
